According to PubChem BioAssay (NCI):
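A five-concentration, 48-hour dose response in 96-well plates underlies each endpoint, interpolated linearly between surrounding concentrations. GI50: concentration for 50% inhibition of growth. TGI is the concentration that stops growth completely.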

Columns and labels:
Test in all cases: growth of human tumour cells (NCI), 48 h
[1] = test system: COLO 205 colon
[2] = test system: UO-31 renal
[3] = test system: DU-145 prostate
[4] = test system: EKVX NSCLC
[5] = test system: SF-268 CNS
[6] = test system: SF-295 CNS
[7] = test system: PC-3 prostate
[8] = test system: SNB-75 CNS
[9] = test system: LOX IMVI melanoma
[10] = test system: SN12C renal
[11] = test system: HOP-62 NSCLC
[12] = test system: U251 CNS
[13] = test system: SF-539 CNS
[14] = test system: OVCAR-4 ovarian
[15] = test system: HCT-15 colon
[16] = test system: HT29 colon
[17] = test system: NCI-H23 lung
[18] = test system: HOP-92 NSCLC
[19] = test system: HCT-116 colon
[20] = test system: SW-620 colon
[21] = test system: HCC-2998 colon
[22] = test system: NCI-H522 lung
[23] = test system: MDA-MB-435
[24] = test system: SR leukemia
[25] = test system: CCRF-CEM leukemia
[26] = test system: SK-OV-3 ovarian
[27] = test system: A498 renal
[28] = test system: OVCAR-3 ovarian
[29] = test system: TK-10 renal
[30] = test system: SK-MEL-2 melanoma
[31] = test system: ACHN renal
[32] = test system: RPMI-8226 leukemia
[33] = test system: 786-0 renal
[34] = test system: OVCAR-8 ovarian
[35] = test system: KM12 colon
[36] = test system: A549 NSCLC
[37] = test system: T-47D breast
[38] = test system: UACC-62 melanoma
[39] = test system: MOLT-4 leukemia
[40] = test system: NCI-H226 lung
[41] = test system: BT-549 breast
[42] = test system: SK-MEL-5 melanoma
[43] = test system: M14 melanoma
[44] = test system: MDA-MB-231 breast
[45] = test system: MALME-3M melanoma
[46] = test system: UACC-257 melanoma
[47] = test system: OVCAR-5 ovarian
[48] = test system: NCI-H460 lung
[49] = test system: SK-MEL-28 melanoma
[50] = test system: NCI/ADR-RES ovarian
[51] = test system: RXF 393 renal
[52] = test system: K-562 leukemia
[53] = test system: HS 578T breast
[54] = test system: MCF7 breast
[55] = test system: IGROV1 ovarian
[56] = test system: SNB-19 CNS
[57] = test system: HL-60(TB) leukemia

c1ccc2nc(Cn3c[n+](Cc4ccc5ccccc5n4)c4ccccc43)ccc2c1
GI50 [1]: 1.37 µM
TGI [1]: 3.22 µM
GI50 [2]: 7.08 µM
TGI [2]: 21.7 µM
GI50 [3]: 4.55 µM
TGI [3]: 17 µM
GI50 [4]: 5.7 µM
TGI [4]: 23.7 µM
GI50 [5]: 2.97 µM
TGI [5]: 14.2 µM
GI50 [6]: 2.69 µM
TGI [6]: 11.9 µM
GI50 [7]: 2.48 µM
TGI [7]: 12.2 µM
GI50 [8]: 2.09 µM
TGI [8]: 9.13 µM
GI50 [9]: 1.91 µM
TGI [9]: 7.8 µM
GI50 [10]: 2.19 µM
TGI [10]: 10.9 µM
GI50 [11]: 2.97 µM
TGI [11]: 13.7 µM
GI50 [12]: 3.08 µM
TGI [12]: 12.8 µM
GI50 [13]: 2.61 µM
TGI [13]: 12 µM
GI50 [14]: 1.49 µM
TGI [14]: 11.6 µM
GI50 [15]: 15.1 µM
TGI [15]: 32.6 µM
GI50 [16]: 1.48 µM
TGI [16]: 9.87 µM
GI50 [17]: 1.47 µM
TGI [17]: 10.3 µM
GI50 [18]: 0.93 µM
TGI [18]: 4.3 µM
GI50 [19]: 2.4 µM
TGI [19]: 12.2 µM
GI50 [20]: 3.3 µM
TGI [20]: 15.4 µM
GI50 [21]: 2.76 µM
TGI [21]: 13.6 µM
GI50 [22]: 1.56 µM
TGI [22]: 9.72 µM
GI50 [23]: 1.63 µM
TGI [23]: 4.37 µM
GI50 [24]: 1.69 µM
TGI [24]: 5.48 µM
GI50 [25]: 3.47 µM
TGI [25]: 21 µM
GI50 [26]: 3.03 µM
TGI [26]: 11.3 µM
GI50 [27]: 2.24 µM
TGI [27]: 10.2 µM
GI50 [28]: 1.6 µM
TGI [28]: 4.99 µM
GI50 [29]: 3.49 µM
TGI [29]: 13.3 µM
GI50 [30]: 2.61 µM
TGI [30]: 6.87 µM
GI50 [31]: 14.6 µM
TGI [31]: 31.1 µM
GI50 [32]: 0.681 µM
TGI [32]: 4.05 µM
GI50 [33]: 4.2 µM
TGI [33]: 16.4 µM
GI50 [34]: 3.13 µM
TGI [34]: 11.3 µM
GI50 [35]: 1.61 µM
TGI [35]: 4.54 µM
GI50 [36]: 11.6 µM
TGI [36]: 25.9 µM
GI50 [37]: 0.785 µM
TGI [37]: 9.65 µM
GI50 [38]: 1.34 µM
TGI [38]: 3.51 µM
GI50 [39]: 3.37 µM
TGI [39]: 13 µM
GI50 [40]: 4.13 µM
TGI [40]: 20.4 µM
GI50 [41]: 1.95 µM
TGI [41]: 6.5 µM
GI50 [42]: 1.45 µM
TGI [42]: 2.8 µM
GI50 [43]: 1.99 µM
TGI [43]: 6.99 µM
GI50 [44]: 1.59 µM
TGI [44]: 4.46 µM
GI50 [45]: 1.26 µM
TGI [45]: 4.7 µM
GI50 [46]: 2.02 µM
TGI [46]: 5.33 µM
GI50 [47]: 2.43 µM
TGI [47]: 13.7 µM
GI50 [48]: 2.8 µM
TGI [48]: 12.3 µM
GI50 [49]: 2.38 µM
TGI [49]: 9.98 µM
GI50 [50]: > 100 µM
TGI [50]: > 100 µM
GI50 [51]: 3.1 µM
TGI [51]: 12 µM
GI50 [52]: 1.25 µM
TGI [52]: 11.8 µM
GI50 [53]: 3.19 µM
TGI [53]: 18.8 µM
GI50 [54]: 1.91 µM
TGI [54]: 11.5 µM
GI50 [55]: 1.65 µM
TGI [55]: 8.27 µM
GI50 [56]: 2.22 µM
TGI [56]: 10.4 µM

COc1cc(Br)c(OC)c2c(OC)cc(C)cc12
TGI [1]: > 100 µM
TGI [2]: > 100 µM
TGI [3]: > 100 µM
TGI [5]: > 100 µM
TGI [6]: > 100 µM
TGI [7]: > 100 µM
TGI [8]: > 100 µM
TGI [9]: > 100 µM
TGI [10]: > 100 µM
TGI [11]: > 100 µM
TGI [12]: > 100 µM
TGI [13]: > 100 µM
TGI [15]: > 100 µM
TGI [16]: > 100 µM
TGI [17]: > 100 µM
TGI [19]: > 100 µM
TGI [20]: > 100 µM
TGI [21]: > 100 µM
TGI [22]: > 100 µM
TGI [23]: > 100 µM
TGI [24]: 37.8 µM
TGI [25]: > 100 µM
TGI [26]: > 100 µM
TGI [27]: > 100 µM
TGI [57]: > 100 µM
TGI [28]: > 100 µM
TGI [29]: > 100 µM
TGI [30]: > 100 µM
TGI [31]: > 100 µM
TGI [32]: > 100 µM
TGI [33]: > 100 µM
TGI [34]: > 100 µM
TGI [35]: > 100 µM
TGI [37]: > 100 µM
TGI [38]: > 100 µM
TGI [39]: > 100 µM
TGI [40]: > 100 µM
TGI [41]: > 100 µM
TGI [43]: > 100 µM
TGI [44]: > 100 µM
TGI [45]: > 100 µM
TGI [46]: > 100 µM
TGI [47]: > 100 µM
TGI [48]: > 100 µM
TGI [49]: > 100 µM
TGI [50]: > 100 µM
TGI [51]: > 100 µM
TGI [52]: > 100 µM
TGI [53]: > 100 µM
TGI [54]: > 100 µM
TGI [55]: > 100 µM
TGI [56]: > 100 µM
